Measured values: publication PMC11224357, “Green, facile synthesis and evaluation of unsymmetrical carbamide derivatives as antimicrobial and anticancer agents with mechanistic insights” (Scientific Reports, 2024)
≈ marks a conversion by molar mass, not a printed value. Like-named read-outs stand apart in the source and are kept apart here.

How the values were obtained:
Klebsiella pneumonia [1] = assay: MIC by microdilution (CLSI); type: cell-based; conditions: Klebsiella pneumoniae, read-out: Minimum inhibitory concentration (MIC)
Method: (§1) In brief, a defined weight for each selected compound was dissolved in dimethylsulphoxide (DMSO) and used as a stock solution[29].

Pseudomonas aeruginosa [2] = assay: MIC by microdilution (CLSI); type: cell-based; conditions: read-out: Minimum inhibitory concentration (MIC)
Method: as §1

Bacillus subtilis [3] = assay: MIC by microdilution (CLSI); type: cell-based; conditions: read-out: Minimum inhibitory concentration (MIC)
Method: as §1

Staphylococcus aureus [4] = assay: MIC by microdilution (CLSI); type: cell-based; conditions: read-out: Minimum inhibitory concentration (MIC)
Method: as §1

Candida albicans [5] = assay: MIC by microdilution (CLSI); type: cell-based; conditions: read-out: Minimum inhibitory concentration (MIC)
Method: (§2) For this purpose, serial dilution of the potent compounds was carried out to obtain the desired concentrations (i.e. 10–400 µg/mL). In brief, a defined weight for each selected compound was dissolved in dimethylsulphoxide (DMSO) and used as a stock solution[29]. The determination of the MIC value for each targeted compound was known as the lowest concentration of each sample that yielded a minimum number of colony-forming units (CFU) compared to the untreated samples[28].

Aspergillus fumagitus [6] = assay: MIC by microdilution (CLSI); type: cell-based; conditions: read-out: Minimum inhibitory concentration (MIC)
Method: as §2

Candida albicans [7] = assay: Agar well diffusion; type: cell-based; conditions: read-out: Inhibition Zone
Source text: (§3) The antimicrobial efficiency of the synthesized unsymmetrical carbamide derivatives was screened using standard clinical pathogens derived from Department of Microbiology and Immunology, Faculty of Medicine (Boys), Al-Azhar University. The tested microbial pathogens used in this study were as follows, two Gram-positive bacteria (Bacillus subtilis, Staphylococcus aureus), two Gram-negative bacteria (Pseudomonas aerginousea, klebsiella pneumoniae) and two fungi (Candida albicans, Aspergillus fumgitus). Before each antimicrobial examination, pre-activation of each microbial pathogen was implemented using specific growth conditions. For bacterial ones, preinoculum was prepared using Nuitrent broth medium (Codalab, Spain) at 37 °C for 24 h. while the fungal pathogens were activated using Potato Dextrose broth (Codalab, Spain) at 28 °C for 48 h. Consequently, each tested pathogen justified its inoculum size based on Colony Forming Units (CFU) to be closed to […] during all antimicrobial tests.

Aspergillus fumagitus [8] = assay: Agar well diffusion; type: cell-based; conditions: read-out: Inhibition Zone
Source text: as §3

Klebsiella pneumonia [9] = assay: Lipid peroxidation (LPO) MDA-TBA assay of bacterial cell membrane; type: cell-based; conditions: overnight incubation, MDA-TBA at 532 nm
Method: (§4) Lipid peroxidation of bacterial cell membranes was a remarkable tool indicating the oxidative stress that was caused by the tested compounds. The lipid peroxidation colorimetric assay kit was used for this purpose. […]. […] Briefly, each tested compound was incubated with each bacterial pathogen overnight under shaking and then 1 mL of the treated bacterial cell was vigorously mixed with 300 μL MDA lysis buffer at 4 °C. The addition of 3 μL of Butylated hydroxytoluene (BHT) was then performed to avoid the pigment interference that resulted from the decomposition of lipophilic peroxides. Thereafter, samples were separated by centrifugation at 8000 rpm for 10 min, and the insoluble substances were discarded. Finally, 200 μL of the clear supernatant was mixed with 600 μL of the TBA solution at 95 °C for 60 min. Samples were then cooled at room temperature, and the developed pink color was determined at 532 nm using a Spectrophotometer (Agilent Cary 100, Germany). The positive control was also prepared using 5% of Hydrogen peroxide and treated each bacterial pathogen for 20 min. The noticed increase in the lipid peroxidation efficiency was expressed from the following equation: Lipidperoxidationefficiency%=NC-NS/NC×100. where NC is the absorbance of lipid peroxidation in the untreated bacterial cells and NS is the absorbance of lipid peroxidation in the treated bacterial cells.

Pseudomonas aeruginosa [10] = assay: as above; type: cell-based; conditions: overnight incubation, MDA-TBA at 532 nm
Method: as §4

Bacillus subtilis [11] = assay: as above; type: cell-based; conditions: overnight incubation, MDA-TBA at 532 nm
Method: as §4

Staphylococcus aureus [12] = assay: as above; type: cell-based; conditions: overnight incubation, MDA-TBA at 532 nm
Method: as §4

Klebsiella pneumonia [13] = assay: Agar well diffusion; type: cell-based; conditions: Klebsiella pneumoniae, read-out: Inhibition Zone
Source text: as §3, with “For bacterial ones, preinoculum was prepared using Nuitrent broth medium (Codalab, Spain) at 37 °C for 24 h. while the fungal pathogens were activated using Potato Dextrose broth (Codalab, Spain) at 28 °C for 48 h.” left out

Pseudomonas aeruginosa [14] = assay: Agar well diffusion; type: cell-based; conditions: read-out: Inhibition Zone
Source text: as §3, with “For bacterial ones, preinoculum was prepared using Nuitrent broth medium (Codalab, Spain) at 37 °C for 24 h. while the fungal pathogens were activated using Potato Dextrose broth (Codalab, Spain) at 28 °C for 48 h.” left out

Bacillus subtilis [15] = assay: Agar well diffusion; type: cell-based; conditions: read-out: Inhibition Zone
Source text: as §3, with “For bacterial ones, preinoculum was prepared using Nuitrent broth medium (Codalab, Spain) at 37 °C for 24 h. while the fungal pathogens were activated using Potato Dextrose broth (Codalab, Spain) at 28 °C for 48 h.” left out

Staphylococcus aureus [16] = assay: Agar well diffusion; type: cell-based
Source text: as §3, with “For bacterial ones, preinoculum was prepared using Nuitrent broth medium (Codalab, Spain) at 37 °C for 24 h. while the fungal pathogens were activated using Potato Dextrose broth (Codalab, Spain) at 28 °C for 48 h.” left out

[17] = tested on: BJ-1 (human normal skin fibroblast cells); assay: MTT cytotoxicity assay; type: cell-based; conditions: BJ-1 normal cells, 100 µM
Method: (§5) The MTT 3-(4,5-dimethylthiazol-2-yl)-2,5-diphenyl-tetrazolium bromide (Bio Basic Canada Inc. Toronto, Canada) assay was used to assess cell viability. The procedures were carried out in a biosafety class II sterile laminar air flow cabinet (Baker, SG403INT; Sanford, ME, USA). […] Cells were seeded at a density of (10^4 cells/well) into 96-well micro titer polypropylene plates and left to adhere for 24 h. The media was aspirated and the test chemicals were given to the cells in a single dose of 100 µM in DMSO. After 48 h of incubation, 40 µL of MTT salt ([…]) was applied to each well. […] Instead of the tested substances, the medium was applied to the untreated cells (negative control). […] The testing substance was dissolved in dimethylsulfoxide (DMSO), and its final concentration in the cells was less than 0.2%. The solvent concentration was the same for all medications and between the control and drug treatments at the same dilution.

MTT cytotoxicity assay = type: cell-based, human; conditions: human, BJ-1 normal cells
Method: as §5

HCT-116 cells [18] = assay: Cell cycle analysis by flow cytometry (PI staining); type: cell-based, human
Method: The ethanol-suspended cells were centrifuged and re-suspended in 5 mL 1 × DPBS, then centrifuged again before being re-suspended in 1 mL of PI staining solution. The stained cells were kept in the dark at room temperature for 30 min before being transferred to the CytoFLEX Flow Cytometer to measure their fluorescence. […] BECKMAN COULTER Inc., Cairo, Egypt, Cat. No. 4238055-CB was used in this assay.

[19] = tested on: MCF-7 (human breast cancer); assay: MTT cytotoxicity assay; type: cell-based; conditions: for IC50: MTT
Method: as §5, with “The media was aspirated and the test chemicals were given to the cells in a single dose of 100 µM in DMSO.” left out

[20] = tested on: HCT-116 (human colon cancer); assay: MTT cytotoxicity assay; type: cell-based
Method: as §5

HCT-116 cells [21] = assay: Annexin V-FITC/PI necrosis cell apoptosis assay; type: cell-based, human; conditions: % of population
Method: (§6) The levels of necrosis and apoptosis in cells were determined by CytoFLEX Flow Cytometer. A total of 1 × 10^6 cells were washed in 1 × DPBS, and then were centrifuged at 500 × ϲ for 5 min. 1 μL of annexin V-FITC solution and 5 μL of dissolved PI were added to 100 μL of the cell suspensions that kept on ice and were incubated for 15 min in the dark. Cells were then analyzed by the CytoFLEX Flow Cytometer (Beckman Coulter Life Sciences, USA) and the percentage of apoptotic cells was determined using CytExpert Software.

MCF-7 cells = assay: Annexin V-FITC/PI necrosis cell apoptosis assay; type: cell-based, human; conditions: % of population
Method: as §6

[22] = Aspergillus fumagitus, 20 µg/mL
[23] = Homo sapiens, MCF7, 48 h, MCF-7, 48 h

SMILES	MIC (Klebsiella pneumonia [1])	MIC (Pseudomonas aeruginosa [2])	MIC (Bacillus subtilis [3])	MIC (Staphylococcus aureus [4])	MIC (Candida albicans [5])	MIC (Aspergillus fumagitus [6])	zone of inhibition at 20 µg/mL (Candida albicans [7]; 20 µg/mL)	zone of inhibition at 20 µg/mL (Aspergillus fumagitus [8]; [22])	Lipid peroxidation (Klebsiella pneumonia [9])	Lipid peroxidation (Pseudomonas aeruginosa [10])	Lipid peroxidation (Bacillus subtilis [11])	Lipid peroxidation (Staphylococcus aureus [12])	zone of inhibition at 20 µg/mL (Klebsiella pneumonia [13]; Klebsiella pneumonia, 20 µg/mL)	zone of inhibition at 20 µg/mL (Pseudomonas aeruginosa [14]; 20 µg/mL)	zone of inhibition at 20 µg/mL (Bacillus subtilis [15]; 20 µg/mL)	zone of inhibition at 20 µg/mL (Staphylococcus aureus [16])	melting point	IC50 [19, 23]	other results
Cc1ccc(NC(=O)N2CCOCC2)cc1 [Compound 15, N-(p-tolyl)morpholine-4-carboxamide]	20 µg/mL (≈ 90.8 µM)	20 µg/mL (≈ 90.8 µM)	40 µg/mL (≈ 182 µM)	40 µg/mL (≈ 182 µM)	10 µg/mL (≈ 45.4 µM)	20 µg/mL (≈ 90.8 µM)	4 mm	2 mm	108.6%	107%	157.1%	128.9%	4 mm	4 mm	2 mm	2 mm	165 to 167 °C	–	–
CN1CCN(C(=O)Nc2ccccc2)CC1 [Compound 21, 4-Methyl-N-phenylpiperazine-1-carboxamide]	–	–	–	–	–	–	–	–	–	–	–	–	–	–	–	–	128 to 130 °C	91.6 ± 0.112 µM	Cytotoxicity (%) [17]: 47.2%; cytotoxicity at 48 h, 100 µM (MTT cytotoxicity assay): 38.9%; cell cycle arrest (phase) (HCT-116 cells [18]): weaker than those of compound 13; cytotoxicity at 100 µM ([19]; Homo sapiens, MCF7, 48 h): ≥ 51%; zone of inhibition at 20 µg/mL (Candida albicans [7]): 3 mm; zone of inhibition at 20 µg/mL (Aspergillus fumagitus [8]; Aspergillus): 2 mm; cytotoxicity at 100 µM ([20]; HCT-116, 48 h): ≥ 65%; IC50 ([20]; HCT-116, MTT, 48 h): 38.5 ± 0.17 µM; early apoptosis (HCT-116 cells [21]): 0.99%; late apoptosis (HCT-116 cells [21]): 0.44%; zone of inhibition at 20 µg/mL (Klebsiella pneumonia [13]): 3 mm; zone of inhibition at 20 µg/mL (Pseudomonas aeruginosa [14]): 2 mm; zone of inhibition at 20 µg/mL (Bacillus subtilis [15]): 4 mm
O=C(Nc1ccccc1)N1CCCCC1 [Compound 22, N-phenylpiperidine-1-carboxamide]	40 µg/mL (≈ 196 µM)	80 µg/mL (≈ 392 µM)	10 µg/mL (≈ 49 µM)	40 µg/mL (≈ 196 µM)	5 µg/mL (≈ 24.5 µM)	10 µg/mL (≈ 49 µM)	5 mm	4 mm	191.3%	170%	264.8%	273.4%	3 mm	3 mm	5 mm	2 mm	190 to 192 °C	91.6 ± 0.112 µM	cytotoxicity at 100 µM ([19]; Homo sapiens, MCF7, MCF-7, single dose 100 µM, 48 h, read-out: Cytotoxicity (%)): ≥ 51%; IC50 ([19]; MCF-7, 48 h): 57.9 ± 0.122 µM; early apoptosis (MCF-7 cells): 7.93%; late apoptosis (MCF-7 cells): 1.1%
